# Reference: US9867814B2, “Use of non-peptidic NK1 receptor antagonists for the production of apoptosis in tumour cells” (NK-1 IP LIMITED, priority 2004, dated 2018)
# How the values were obtained:
# Format in all cases: cell-based, human
# A-204 = assay: MTS cell proliferation assay, rhabdomyosarcoma line A-204; conditions: A-204 cells
# Description: Cellular Lines Related to Human Rhabdomyosarcoma A-204 (DSMZ) were Used.
# This cellular line was maintained in a culture of Mc-Co-supplemented with 10% fetal bovine serum according to the established cellular culture conditions of the ATCC.
# (§1) The cellular line was cultivated in flasks of 75 ml (Falcon, Germany). Half were renewed every two days and the cells were treated with Trypsin (0.05% and 0.02% EDTA without Ca2+ and Mg2+) every six days. The cells were incubated at a temperature of 37 C in a humidification of (95% air/5% CO2). […]
# The cell proliferation was evaluated using the MTS method [3-(4,5-dimethylthiazol-2il)-5-(3-carboxymethoxyphenyl) 2-(4-sulfophenyl)-2H-tetrazolium], following the instructions of use by the manufacturer (CellTiter 96 Aqueous One Solution Cell Proliferation Assay, Promega, USA).
# (§2) During the experiment, the cultivated cells were broken apart every 4-5 days by way of trypsinization and to test the cell viability the blue trypan method was used. The cells were quantified and cultured in plates of 96 wells each. […]
# In T0, 20 μl of MTS was immediately added to the wells and were read 90 minutes later. […]
# To study the proliferation of the cells 20 μl of MTS reactor was added to each well (T1, T2) 90 min., before reading the samples with the plate reader (TECAN Spectra Classic) at 492 nm. […]
# CA-46 = assay: MTS cell proliferation assay, Burkitt's lymphoma line CA-46; conditions: CA-46 cells
# Description: Cellular lines related with Burkitt's human lymphoma The cellular line of Burkitt's human lymphoma was used with CA-46 (DSMZ).
# This cellular line was maintained in a culture of RPMI 1640 supplemented with 10% fetal bovine serum according to the established cellular culture conditions of the ATCC.
# The cellular lines were cultivated in flasks of 75 ml (Falcon, Germany). Half was renewed every two days and the cells were treated with Trypsin (0.05% and 0.02% EDTA […]) every six days. The cells were incubated at 37 C in a humidification of (95% air/5% CO2). […]
# (§3) The cell proliferation was evaluated using the MTS method [3-(4,5-dimethylthiazol-2-il)-5-(3-carboxymethoxyphenyl) 2-(4-sulfophenyl)-2H-tetrazolium], following the instructions of use by the manufacturer (CellTiter 96 Aqueous One Solution Cell Proliferation Assay, Promega, USA).
# The cells were quantified and cultured in plates of 96 wells each. […]
# In T0, 20 μL of MTS was immediately added to the wells and they were read 90 minutes later. […]
# To study the proliferation of the cells 20 µl of reactive MTS was added to each well (T1, T2) 90 min before reading the samples with the plate reader (TECAN Spectra Classic) at 492 nm. The quantity of reactive MTS was measured by optical density, being directly proportional in number of live cells. […]
# COLO-677 = assay: MTS cell proliferation assay, small cell lung cancer line COLO-677; conditions: COLO-677 cells
# Description: Cellular lines related with small cell lung cancer COLO-677 (DSMZ) was used. This cellular line was maintained in a culture of RPMI 1640 supplemented with 10% fetal bovine serum according to the established cellular culture conditions of the ATCC.
# as §1, §3, §2
# In T0, 20 μl of MTS was immediately added to the wells and they were read 90 minutes later. […]
# To study the proliferation of the cells 20 μL of MTS reactor was added to each well (T1, T2) 90 min., before reading the samples with the plate reader (TECAN Spectra Classic) at 492 nm. […]
compound,measurement,setting,value
"FC(F)(F)c1cc(CO[C@H]2CCCN[C@H]2c2ccccc2)cc(C(F)(F)F)c1 [L-733,060, (2S,3S) 3-([3,5-Bis(trifluoromethyl)phenyl]metoxi)-2-phenylpiperidine]",cellular growth,"A-204; at the highest concentrations (2.5 μM to 20 μM tested), 36 hrs. and 72 hrs. incubation",Cellular growth is inhibited
same,apoptosis,A-204; at the maximum dose (2.5 μM to 20 μM tested),apoptosis
same,cellular growth,"CA-46; at the highest concentrations (2.5 μM to 25 μM tested), 35 hrs. and 72 hrs. incubation",inhibition in cellular growth was produced
same,apoptosis,CA-46; at the maximum dose (2.5 μM to 25 μM tested),apoptosis
same,cellular growth,"COLO-677; at the highest concentrations (5 μM to 20 μM tested), 40 hrs. and 96 hrs. incubation",Cellular growth is inhibited
same,apoptosis,COLO-677; at the maximum dose (5 μM to 20 μM tested),apoptosis
